Experimental findings from patent US20060002932A1, “Methods and compositions for enhancement of immunity by in vivo depletion of immunosuppressive cell activity” (priority 2004, published 2006) are described below.

“And” between values parts separate entries of the source, which are not always exact repeats. Identical values can stand only once. “Also recorded” adds a separate entry of the source.

The nature of data set [1]: Clinical toxicity in cancer patients. The class given is in vivo, human. On the procedure:
All subjects received a total of three intradermal injections of total tumor RNA-transfected DC. The injections were given intradermally at biweekly intervals and consisted of 1×10^7 cells suspended in 200 μL 0.9% sodium chloride (Abbott Laboratories, Abbott Park, Ill.) at each vaccination cycle. Following treatment, subjects were evaluated for toxicity, immunological and clinical response to therapy. Follow-up visits occurred biweekly for three visits, monthly for one visit, then every 3 months or until the subject was removed from the study.
Having shown that regulatory T cell elimination is capable of enhancing T-cell responses in vitro, a clinical study was initiated to analyze the efficacy of this strategy to a) eliminate regulatory T cells and b) to enhance a vaccine-induced T-cell response in end-stage cancer patients. Seven patients with metastatic renal cell (RCC), and one subject with disseminated ovarian carcinoma (OVA) were treated in an institutional review board (IRB) and Food and Drug Administration (FDA)-approved pilot study. […] PBMCs were also obtained from a subject who received DAB389IL-2 only under separate informed consent.
Treatment of patients was performed following written informed consent as part of an Institutional Review Board- and Federal Drug Administration-approved protocol. Patients with histologically-confirmed metastatic RCC were eligible for this study. One patient with disseminated ovarian carcinoma was included and treated on a compassionate basis. All patients were required to have adequate hepatic, renal, and neurological function, a life expectancy of >6 months, and a Karnofsky performance status of >70%. Patients must have had recovered from all toxicities related to any prior therapy and have not received any chemotherapy, radiation therapy, or immunotherapy for at least 6 weeks prior to study entry. Excluded from the study were patients with CNS metastases, with a history of autoimmune disease, with serious intercurrent chronic or acute illnesses. Patients on immunosuppressive agents were also excluded. […] All subjects received 3 intradermal injections of tumor RNA-transfected DC. The injections were given intradermally at biweekly intervals and consisted of 1×10^7 cells suspended in 200 μL 0.9% sodium chloride at each vaccination. Following treatment, subjects were evaluated for clinical toxicity, immunological and clinical responses. Due to regulatory restrictions and, in some subjects, limited access to tumor tissue, no tumor biopsies were performed.
Having shown that Treg elimination is capable of enhancing T-cell responses in vitro, a clinical study was initiated to test the Treg depletion concept in a human vaccination setting. Eleven patients including 10 with metastatic RCC and one with disseminated ovarian carcinoma (OVA) were treated in an Institutional Review Board (IRB) and Food and Drug Administration (FDA)-approved study.

Data set [2] deals with CD4^+/CD25^+ T cells of study subjects. Nature of the data set: Treg functional evaluation (suppression of anti-CD3/CD28 activated indicator T cells). As to conditions: CD4^+/CD25^+ T cells isolated prior to vs 4 days after treatment. The class given is in vivo, human. On the procedure:
The suppressive activity of Treg isolated from PBMC of study subjects prior to and 4 days after […] administration was analyzed, as described previously^25. CD4^+/CD25^+ T cells were isolated from the PBMC of study subjects using magnetic bead separation techniques. Cells were washed with PBS, resuspended in complete RPMI 1640 medium, and placed into 96-well round bottom plates pre-coated with anti-CD3/CD28 antibodies (0.4 μg/well) (Caltag). CD4^+/CD25^− cells were plated at 2.0×10^4/well alone or in combination with CD4^+/CD25^+ cells in triplicate wells at a ratio of 1:2 (CD4^+/CD25^−:CD4^+CD25^+). On day 5, 1 μCi of ^3H thymidine was added for the final 16 hr of the cultures. Cells were then harvested on glass fiber filters and assessed for uptake of radiolabeled thymidine.

A further data set concerns CD4^+/CD25^high Treg. As to the kind of experiment: Depletion of regulatory T cells in vivo (FACS of patient PBMC). The arrangement: species or system human. As to conditions: for Treg Depletion (%): single i.v. dose 18 μg/kg. Here is the method: Four-color FACS analyses were performed using a Becton Dickinson FACSCalibur™. Fluorochrome-conjugated antibodies including anti-CD4 FITC, anti-CD45RO, anti-CD45RA (Caltag, Burlingame, Calif.); anti-CD25 PE (Becton Dickinson, California, CA) as well as isotypic control antibodies (Caltag, Burlingame, Calif.) were used for T-cell staining. Expression of GITR was analyzed by staining T cells with anti-GITR antibody (R&D Systems, Minneapolis, Minn.) followed by secondary goat anti-mouse antibody conjugated to APC. For determination of intracellular CTLA-4 expression, T cells were permeabilized with 0.5% saponin, fixed with 4% paraformaldehyde and then stained with biotinylated anti-CD152 (Becton Dickinson, California, CA) followed by APC-strepavidin (Becton Dickinson, California, CA). A total of 1×10^6 cells were suspended in staining buffer (PBS with 1% FCS, 2 mM EDTA, and 0.1% sodium azide) and incubated for 20 minutes at 4° C. with the antibody. Data were analyzed and presented using CELLQuest™ software. Sorting of CD4^+CD25^neg, CD4^+CD25^int and CD4^+CD25^high T cells was performed with a BD FACSAria™ cell sorter after antibody labeling. For detection of cytokine secretion, isolated CD4^+ T cells were activated for 16 hours in the presence of autologous mRNA-transfected DC. Cytokine secretion was measured using c Th1/Th2 cytokine cytometric bead arrays according to the manufacturer's protocol (BD Biosciences Pharmingen, San Diego, Calif.).
Using these methods, the degree of regulatory T cell depletion efficacy in the four subjects treated on the clinical protocol was determined.
Four-color FACS analyses were performed using the following antibodies: anti-CD4 FITC, anti-CD45RO, anti-CD45RA (Caltag), anti-CD25 PE (Becton Dickinson), anti-GITR (R&D Systems), and isotypic controls (Caltag). Sorting of CD4^+/CD25^neg, CD4^+/CD25^int and CD4^+/CD25^high T cells was performed using a Becton Dickinson FACSAria™ cell sorter after antibody labeling. For intracellular detection of FoxP3, cells were permeabilized with 30 μg/ml digitonin for 45 minutes at 4° C. Subsequently, cells were stained with anti-FoxP3 antibody (Abcam), and R-PE anti-goat IgG in the presence of 10 μg/ml digitonin for 30 minutes at 4° C. Following staining, cells were fixed and analyzed by FACS. For intracellular CTLA-4 detection, T cells were permeabilized, fixed, and stained with biotinylated anti-CD152 (Becton Dickinson) followed by APC-streptavidin (Becton Dickinson). A total of 1×10^6 cells was suspended in staining buffer (PBS with 1% FCS, 2 mM EDTA, and 0.1% sodium azide) and incubated for 20 minutes at 4° C. with the antibody.

The test system of data set [3] is responder cells (PBMC) in MLR. As to the kind of experiment: Allogeneic DC-stimulated mixed lymphocyte reaction (MLR) proliferation. The class given is cell-based, human.

denileukin diftitox [DAB389IL-2]: the “reduction in absolute neutrophil counts (ANC)” value in data set [1] (average, 5 of 6 evaluable subjects) is recorded as 10%. Moreover, the “decrease in absolute neutrophil counts (ANC)” value in data set [1] (one subject) came out at 20%. In data set [1] (single i.v. dose 18 μg/kg), the ALT elevations result is “transient, grade II ALT elevations in one subject; also recorded: transient grade II serum alanine aminotransferase (ALT) elevations (n=1)”; the constitutional symptoms entry is “Grade I constitutional symptoms in two subjects; also recorded: grade I constitutional symptoms such as low-grade fever and malaise (n=4)”; the serum rheumatoid factor result is on record as “grade I elevation of serum rheumatoid factor (n=1)”. In addition, the Treg-mediated immunosuppressive activity entry in data set [2] was “abrogation of Treg-mediated immunosuppressive activity in vivo”. Besides, the “Treg Depletion (%)” value in the data set with CD4^+/CD25^high Treg (Example 1, per patient, four days after treatment) was 74% and 88% and 37% and 77%. Also, the “Treg Depletion (%)” value with CD4^+/CD25^high Treg (Example 1, per patient, four days after treatment, listed as DAB 389 IL-2) is 74% and 88% and 37% and 77%. Besides, in the data set on CD4^+/CD25^high Treg (Example 2, per patient, 4 days after infusion), the “Treg Depletion (%)” value was 74% and 72% and 68% and 76% and 57% and 26% and 35%. Further, the “effect on CD25^neg/int subsets” value with CD4^+/CD25^high Treg (total CD25^pos cells after DAB389IL-2) is “CD25^neg/int subsets were unaffected”. Further, in the data set on CD4^+/CD25^high Treg (within two months), the “Treg restored in the peripheral T-cell pool” value is on record as “approximately 75%”. Besides, the “proliferation of responder cells” value in data set [3] (DAB389IL-2 added two days after initiation of the MLR) is given as “completely abrogated the proliferation of responder cells”. Besides, the “inhibitory effect of Treg added to MLR” value in data set [3] (pre-incubation of Treg with DAB389IL-2 5 nM) is reported as “significantly abrogated their inhibitory effect”.
